Measured values taken from the supplement of paper PMC11208160.

Assay: recombinant UMI read abundance after kanamycin selection (control-corrected) (log10(CPM+1)); higher = more efficient recombination; extreme values may be limits of the assay; sequences stand for … in AGTGCAGAGAAAATCGGCCAGTTTTCTCTGCCTGCAGTCCGCATGCCGTGGGACCCCTTGGGTTCTAACCTGTTGCCTAGATTTATGCAGCGGACTGCCTTTCTCCCAAAGTGATAAACCGG…AGGTTGGTTTCACT; site = the 11-nt donor
Summary of the method: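 Counts of recombinant UMIs were reported as log10(CPM+1). Before that, they were converted to CPM, averaged over replicates and scaled using control-derived factors. They came from PCR across the donor–target junction after Escherichia coli carrying the pair library and target plasmid was plated on IPTG (0.07 mM) plus kanamycin, or unselected, in two replicates each.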
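Also: IS621 bridge recombinase in Escherichia coli cells against a fixed T5 target plasmid.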

Sequence	recombinant UMI read abundance (log10)
TTAGCTGCATGGACCGGTTTTCCCGGTAATCCGTATTTGTT (site TTAGCTGCTAA)	1.08
TTAGCTGCATGGACCGGTTTTCCCGGTAATCCGTATTTGTT (site TTAGCTGCTCA)	0.187
TTAGCTGCATGGACCGGTTTTCCCGGTAATCCGTATTTGTT (site TTAGCTGCTGA)	0.423
TTAGCTGCATGGACCGGTTTTCCCGGTAATCCGTATTTGTT (site TTAGCTGCTTA)	0.0119
TTAGGACCATGGACCGGTTTTCCCGGTAATCCGTATTTGCA (site TTAGGACCTTG)	0.00659
TTAGGTACATGGACCGGTTTTCCCGGTAATCCGTATTTGAC (site ATAGGTACTGT)	0.0067
TTAGGTACATGGACCGGTTTTCCCGGTAATCCGTATTTGAC (site CTAGGTACTGT)	0
TTAGGTACATGGACCGGTTTTCCCGGTAATCCGTATTTGAC (site GTAGGTACTGT)	0
TTAGGTACATGGACCGGTTTTCCCGGTAATCCGTATTTGAC (site TTAGGTACTGT)	1.98
TTAGTATCATGGACCGGTTTTCCCGGTAATCCGTATTTGTC (site CTAGTATCTGT)	0
TTAGTATCATGGACCGGTTTTCCCGGTAATCCGTATTTGTC (site TTAGTATCTGA)	1.77
TTATAAGCATGGACCGGTTTTCCCGGTAATCCGTATTTGAG (site TTATAAGCTCT)	1.65
TTATACCCATGGACCGGTTTTCCCGGTAATCCGTATTTGAG (site TTATACCCTCT)	0.00206
TTATCATCATGGACCGGTTTTCCCGGTAATCCGTATTTGCT (site CGATCATCTAG)	0.595
TTATCATCATGGACCGGTTTTCCCGGTAATCCGTATTTGCT (site TTATCATCTAG)	1.98
TTATGAGCATGGACCGGTTTTCCCGGTAATCCGTATTTGGG (site TAATGAGCTCC)	0.0152
TTATGAGCATGGACCGGTTTTCCCGGTAATCCGTATTTGGG (site TCATGAGCTCC)	0.0145
TTATGAGCATGGACCGGTTTTCCCGGTAATCCGTATTTGGG (site TGATGAGCTCC)	0.0171
TTATGAGCATGGACCGGTTTTCCCGGTAATCCGTATTTGGG (site TTATGAGCTCC)	0.0057
TTATGCGCATGGACCGGTTTTCCCGGTAATCCGTATTTGCC (site TTATGCGCTGG)	1.93
TTATTACCATGGACCGGTTTTCCCGGTAATCCGTATTTGGG (site TTATTACCTCC)	0.0164
TTATTTACATGGACCGGTTTTCCCGGTAATCCGTATTTGAA (site TTATTTACTTT)	0.00385
TTCAACCCATGGACCGGTTTTCCCGGTAATCCGTATTTGGA (site TTCAACCCTTC)	0
TTCAACTCATGGACCGGTTTTCCCGGTAATCCGTATTTGTC (site TTCAACTCTGA)	0.222
TTCAATTCATGGACCGGTTTTCCCGGTAATCCGTATTTGCC (site TACAATTCTGG)	0

Sequence	recombinant UMI read abundance (log10)
TTCAATTCATGGACCGGTTTTCCCGGTAATCCGTATTTGCC (site TCCAATTCTGG)	0
TTCAATTCATGGACCGGTTTTCCCGGTAATCCGTATTTGCC (site TGCAATTCTGG)	0
TTCAATTCATGGACCGGTTTTCCCGGTAATCCGTATTTGCC (site TTCAATTCTGG)	0
TTCACGCCATGGACCGGTTTTCCCGGTAATCCGTATTTGAC (site TTCACGCCTGT)	0
TTCACTTCATGGACCGGTTTTCCCGGTAATCCGTATTTGTG (site TTCACTTCTCA)	0.00654
TTCAGCTCATGGACCGGTTTTCCCGGTAATCCGTATTTGTT (site TTCAGCTCTAA)	0.00312
TTCATGACATGGACCGGTTTTCCCGGTAATCCGTATTTGCG (site TTCATGACTCG)	0
TTCCCGCCATGGACCGGTTTTCCCGGTAATCCGTATTTGCT (site TTCCCGCCTAG)	0.552
TTCCTCACATGGACCGGTTTTCCCGGTAATCCGTATTTGCT (site TTCCTCACTAG)	0.293
TTCGAGACATGGACCGGTTTTCCCGGTAATCCGTATTTGCA (site TTCGAGACTTG)	0.725
TTCGCCTCATGGACCGGTTTTCCCGGTAATCCGTATTTGAT (site TTCGCCTCTAT)	0.521
TTCGCGACATGGACCGGTTTTCCCGGTAATCCGTATTTGAA (site TTCGCGACTTT)	0.0402
TTCGCTTCATGGACCGGTTTTCCCGGTAATCCGTATTTGTG (site TTCGCTTCTCA)	0
TTCGGCACATGGACCGGTTTTCCCGGTAATCCGTATTTGAG (site TTCGGCACTCT)	0.00333
TTCGGGGCATGGACCGGTTTTCCCGGTAATCCGTATTTGTC (site TTCGGGGCTGA)	0
TTCGTCCCATGGACCGGTTTTCCCGGTAATCCGTATTTGTC (site TTCGTCCCTGA)	0
TTCTACACATGGACCGGTTTTCCCGGTAATCCGTATTTGCT (site ATCTACACTAG)	0.34
TTCTACACATGGACCGGTTTTCCCGGTAATCCGTATTTGCT (site CTCTACACTAG)	1.12
TTCTACACATGGACCGGTTTTCCCGGTAATCCGTATTTGCT (site GTCTACACTAG)	0.569
TTCTACACATGGACCGGTTTTCCCGGTAATCCGTATTTGCT (site TTCTACACTAG)	1.16
TTCTAGGCATGGACCGGTTTTCCCGGTAATCCGTATTTGGT (site TACTAGGCTAC)	0.00535
TTCTAGGCATGGACCGGTTTTCCCGGTAATCCGTATTTGGT (site TCCTAGGCTAC)	0.0191
TTCTAGGCATGGACCGGTTTTCCCGGTAATCCGTATTTGGT (site TGCTAGGCTAC)	0.0112
TTCTAGGCATGGACCGGTTTTCCCGGTAATCCGTATTTGGT (site TTCTAGGCTAC)	0.0102
TTCTAGTCATGGACCGGTTTTCCCGGTAATCCGTATTTGAC (site TTCTAGTCTGT)	0

Sequence	recombinant UMI read abundance (log10)
TTCTCCGCATGGACCGGTTTTCCCGGTAATCCGTATTTGAA (site TTCTCCGCTTT)	0.0825
TTCTCCTCATGGACCGGTTTTCCCGGTAATCCGTATTTGTT (site TTCTCCTCTAA)	0.151
TTCTCTTCATGGACCGGTTTTCCCGGTAATCCGTATTTGTG (site TTCTCTTCTCA)	0.00971
TTCTGGGCATGGACCGGTTTTCCCGGTAATCCGTATTTGCA (site TTCTGGGCTTG)	0.345
TTCTGTCCATGGACCGGTTTTCCCGGTAATCCGTATTTGCG (site TTCTGTCCTCG)	0.00535
TTCTTCCCATGGACCGGTTTTCCCGGTAATCCGTATTTGGC (site TTCTTCCCTGC)	0
TTCTTGACATGGACCGGTTTTCCCGGTAATCCGTATTTGCT (site TACTTGACTAG)	0.126
TTCTTGACATGGACCGGTTTTCCCGGTAATCCGTATTTGCT (site TCCTTGACTAG)	0.513
TTCTTGACATGGACCGGTTTTCCCGGTAATCCGTATTTGCT (site TGCTTGACTAG)	0
TTCTTGACATGGACCGGTTTTCCCGGTAATCCGTATTTGCT (site TTCTTGACTAG)	0.68
TTGAACACATGGACCGGTTTTCCCGGTAATCCGTATTTGAC (site TTGAACACTGT)	0.849
TTGAATACATGGACCGGTTTTCCCGGTAATCCGTATTTGCA (site TAGAATACTTG)	1.77
TTGAATACATGGACCGGTTTTCCCGGTAATCCGTATTTGCA (site TCGAATACTTG)	0
TTGAATACATGGACCGGTTTTCCCGGTAATCCGTATTTGCA (site TGGAATACTTG)	0
TTGAATACATGGACCGGTTTTCCCGGTAATCCGTATTTGCA (site TTGAATACTTG)	0.467
TTGACAACATGGACCGGTTTTCCCGGTAATCCGTATTTGAC (site TTGACAACTGT)	1.62
TTGACTCCATGGACCGGTTTTCCCGGTAATCCGTATTTGCT (site TTGACTCCTAG)	0.111
TTGAGCACATGGACCGGTTTTCCCGGTAATCCGTATTTGGA (site TTGAGCACTTC)	0.207
TTGCATGCATGGACCGGTTTTCCCGGTAATCCGTATTTGGT (site ATGCATGCTAC)	0.00895
TTGCATGCATGGACCGGTTTTCCCGGTAATCCGTATTTGGT (site CTGCATGCTAC)	0.00328
TTGCATGCATGGACCGGTTTTCCCGGTAATCCGTATTTGGT (site GTGCATGCTAC)	0.0185
TTGCATGCATGGACCGGTTTTCCCGGTAATCCGTATTTGGT (site TTGCATGCTAC)	0.317
TTGCGGGCATGGACCGGTTTTCCCGGTAATCCGTATTTGTC (site TTGCGGGCTGA)	2.15
TTGCTACCATGGACCGGTTTTCCCGGTAATCCGTATTTGAA (site TTGCTACCTTT)	0.0119
TTGCTCACATGGACCGGTTTTCCCGGTAATCCGTATTTGTC (site TTGCTCACTGA)	2.25
